The text below walks through data of patent publication US10570412B2, “Method of increasing resistance against soybean rust in transgenic plants by increasing the scopoletin content” (BASF PLANT SCIENCE COMPANY GMBH, priority 2015, dated 2020).

Entries after “also recorded” stand apart in the source; their conditions may differ.

Data set [1] deals with Phakopsora pachyrhizi. The data set can be described thus: In vitro germination test of Phakopsora pachyrhizi spores on glass slides. It is filed as cell-based. The settings on record: 6 h.
The subject of another data set is Fusarium graminearum. The class given is cell-based. Conditions: 1 mM scopoletin in PDA, compared with PDA+methanol.
In data set [2] the test system is Phakopsora pachyrhizi. In words: In vivo spore germination test on Arabidopsis leaves. Details: species or system Phakopsora pachyrhizi on Arabidopsis thaliana. The settings on record: 1 mM scopoletin, assessed 48 h after infection.
Data set [3] deals with Phakopsora pachyrhizi. The data set can be described thus: Soybean rust diseased leaf area on scopoletin-treated soybean plants. It is filed as in vivo, Phakopsora pachyrhizi on soybean.
For a further data set, the system named is Arabidopsis. In words: Phytotoxic effect of scopoletin in Arabidopsis. It is filed as in vivo. The settings on record: Arabidopsis plants treated with 1 mM scopoletin.
The test system of the next data set is soybean. The data set can be described thus: Phytotoxic effect of scopoletin in soybean. The settings on record: soybean plants treated with scopoletin.

Consider `COc1cc2ccc(=O)oc2cc1O` [scopoletin], for which the “germination and appressorium formation of Phakopsora pachyrhizi spores” value in the data set on Phakopsora pachyrhizi [1] (10 μM, 100 μM, 500 μM and 1 mM scopoletin in water, glass slides, dose dependent) is “decreases the germination and appressoria formation in a dose dependent manner; also recorded: strongly inhibited”. Further, the spore germination in-vitro entry with Phakopsora pachyrhizi [1] (1 mM scopoletin) is “completely abolishes spore germination”. For the same compound, the “reduction of the Fusarium graminearum growth rate per day” value in the data set with Fusarium graminearum is given as 61%. Further, the “germination of Phakopsora pachyrhizi spores on Arabidopsis leaves” value is “drastically reduced formation of germinated spores” with Phakopsora pachyrhizi [2] (co-application with inoculation); “strongly inhibited” with Phakopsora pachyrhizi [2] (co-application with inoculation, listed as Scopoletin); “drastically reduced formation of germinated spores” with Phakopsora pachyrhizi [2] (pre-treatment 6 h before inoculation); “strongly inhibited” with Phakopsora pachyrhizi [2] (pre-treatment 6 h before inoculation, listed as Scopoletin). Moreover, the “diseased leaf area caused by Phakopsora pachyrhizi infection” value is given as “drastically reduced formation of infected leaf area; also recorded: strongly reduced” in the data set on Phakopsora pachyrhizi [3] (soy plants, 1 mM scopoletin, co-application, primary, first and second trifoliate leaves, 12 dpi); “drastically reduced formation of infected leaf area; also recorded: strongly reduced” in the data set on Phakopsora pachyrhizi [3] (soy plants, 1 mM scopoletin, pre-treatment 6 h before inoculation, primary, first and second trifoliate leaves, 12 dpi); “strongly reduced in a dose dependent manner” in the data set on Phakopsora pachyrhizi [3] (soybean leaves, co-application of 10 μM, 100 μM or 1 mM scopoletin, dose dependent). The “phytotoxic effect leading to pleiotropic effects” value is “never observed any phytotoxic effect” with Arabidopsis and “never observed” in the data set with soybean.
